Experimental data from US7883713B2, “Topical application of thiazolyl amides” (AiCuris GmbH & Co. KG, priority 2001, dated 2011).

Tests used:
[1] = test system: HSV-1; experiment: Ocular herpes model, HSV-1 infection; assay type: in vivo, mice (BALB/cABom); conditions: for number of survivors of 10 infected animals: HSV-1, day 16 after infection; for number of survivors of 10 infected animals / Pathology index HSV-1 infection (cumulative): topical ophthalmic 2% by weight suspension 5x a day, day 0 to day 4; for Pathology index HSV-1 infection (cumulative): day 0 to day 16, 10 animals; for efficacy of topical treatment (eye drops), in words: ocular HSV infection, efficacy applies to HSV-1
Description: (§1) To form a 2% by weight suspension, the active ingredients are mixed with Liquifilm eyedrops (Allergan, Ettlingen, Germany) (1 ml containing polyvinyl alcohol 14 mg, and as excipient chlorobutanol ½ H2O 5.25 mg, sodium chloride) and sonified in a glass tube in an ultrasonic bath at 15° C. for 15 min.
(§2) 6-week old female mice, strain BALB/cABom (weight 19 g) are purchased from a commercial breeder (M&B A/S, Denmark) and infected with HSV one week later. The animals are anesthetized in a leakproof glass vessel with diethyl ether (Merck). For the ocular infection, the cornea of the right eye is lightly scratched three times horizontally and three times vertically with a sterile needle (0.4×20 mm). The cornea pretreated in this way is inoculated with 5 μl of virus suspension (5×10^7 pfu HSV-2G, 7.5×10^7 pfu HSV-lwalki). The infected animals are checked each day and examined for signs of an HSV infection (blepharitis, keratitis, encephalitis). The pathology index is set at 1 for affected animals, and the pathology index is set at 0 for symptom-free animals. The particular pathology index of the group on the particular day is calculated by summation for all the animals in the group. The cumulative pathology index is calculated by totalling the pathology indices on individual days. The infection leads to the death of 90-100% of untreated animals due to a generalized infection with prominent central nervous symptoms an average of between 5 and 8 days. Moribund animals are euthanized. The treatment takes place starting 3 h after the infection 5× a day for 5 days by instilling 5 μl of a 2% by weight active ingredient suspension in Liquifilm© eye drops (Allergan, Ettlingen, Germany) (1 ml containing polyvinyl alcohol 14 mg, and as excipient chlorobutanol ½ H2O 5.25 mg, sodium chloride) into the infected right eye of the animal.

[2] = test system: HSV-2; experiment: Ocular herpes model, HSV-2 infection; assay type: in vivo, mice (BALB/cABom); conditions: for number of survivors of 10 infected animals: HSV-2, day 16 after infection; for number of survivors of 10 infected animals / Pathology index HSV-2 infection (cumulative): topical ophthalmic 2% by weight suspension 5x a day, day 0 to day 4; for Pathology index HSV-2 infection (cumulative): day 0 to day 16, 10 animals; for efficacy of topical treatment (eye drops), in words: ocular HSV infection, efficacy applies to HSV-2
Description: as §1, §2

[3] = test system: HSV-2; experiment: Zosteriform spread model, percutaneous HSV-2 infection; assay type: in vivo, hairless mice (C3H/TifBom-hr); conditions: for efficacy of topical treatment, in words: 2% by weight suspension in 30% isopropyl myristate, 70% ethanol; for Pathology index (cumulative): day 0 to day 21, 10 animals
Description: To form a 2% by weight suspension, the active ingredients are mixed with 30% by weight isopropyl myristate/70% by weight of ethanol and sonified in a glass tube in an ultrasonic bath at 15° C. for 15 min.
To produce the ointment preparation, wool alcohol ointment complying with DAB 9 is employed. The active ingredient is suspended in a molten mixture of 0.5 parts by weight of cetyl stearyl alcohol (quality complying with DAB 9), 6 parts by weight of wool wax alcohol (quality complying with DAB 9) and 93.5 parts by weight of white petrolatum (quality complying with DAB 9). The mixture is stirred while cooling to room temperature (about 21° C.).
To produce a so-called “PEG isogel” preparation, the active ingredient is suspended or dissolved in the melt a mixture of lower molecular weight polyethylene glycol (PEG) and higher molecular weight PEG.
A further gel preparation employed is a polyacrylate gel (so-called “carbogel”) which consists of 1 part by weight of Carbopol 974 P NF (manufacturer BF Goodrich, USA), […], 5 part by weight of 5% by weight (m/m) sodium hydroxide solution and 89 parts by weight of water. The preparation is produced by rubbing the Carbopol with the isopropanol, adding the active ingredient, and dispersing the mixture in water. The sodium hydroxide solution is added stepwise with stirring. A gel is formed.
6-week old female hairless mice (C3H/TifBom-hr) are purchased from a commercial breeder (M&B A/S, Denmark) and infected with HSV one week later. The animals are anesthetized with diethyl ether (Merck) in a leakproof glass vessel. For the dermal infection, the skin on the right flank or in the neck region of the animal is scratched 10× crosswise with a sterile needle (0.6×25 mm). The skin pretreated in this way is inoculated with 10 μl of virus suspension (1×10^6 pfu HSV-2G; 1.5×10^6 p fu HSV-lwalki). The animals are inspected each day, and the pathology index is determined by means of the following scale: 0: no visible signs of infection, 1: blistering, 2: slight spread in the dermatome (shingles), 3: large areas affected (shingles), 4: confluent shingles bands, 5: paralysis of the extremities, 6: death. The particular pathology index of the group on the particular day is calculated by forming the average for all the animals in the group. The cumulative pathology index is calculated by totalling the pathology indices for individual days. The infection leads to death of 90-100% of the untreated animals due to a generalized infection with prominent central nervous symptoms an average of between 5 and 8 days. Moribund animals are euthanized. […]

[4] = HSV-2, right flank, 2% by weight suspension in 30% isopropyl myristate/70% ethanol on skin 2x a day, day 0 to day 4

Structure (SMILES)	number of survivors of 10 infected animals [1]	Pathology index HSV-1 infection (cumulative) [1]	efficacy of topical treatment (eye drops), in words [1]	number of survivors of 10 infected animals [2]	Pathology index HSV-2 infection (cumulative) [2]	efficacy of topical treatment (eye drops), in words [2]	efficacy of topical treatment, in words ([3]; HSV-2, right flank)	Pathology index (cumulative) [3, 4]	effect of short treatment on infection, in words ([3]; HSV-2G, neck region, 2% by weight PEG isogel 2x a day for 2 days (4 treatments))	Pathology index (cumulative) ([3]; HSV-2G, neck region, 2% by weight PEG isogel on skin 2x a day, day 0 to day 1)	efficacy of topical treatment with various formulations, in words ([3]; HSV-2G, neck region, formulations with 3% by weight active ingredient)
Cc1nc(N(C)C(=O)Cc2ccc(-c3cc(F)ccc3F)cc2)sc1S(N)(=O)=O [N-[5-(Aminosulfonyl)-4-methyl-1,3-thiazol-2-yl]-2-(2′,5′-difluoro-1,1′-biphenyl-4-yl)-N-methylacetamide]	10	0	extensive efficacy	4	42	extensive efficacy	–	–	–	–	–
Cc1nc(N(C)C(=O)Cc2ccc(-c3ccccn3)cc2)sc1S(N)(=O)=O [N-[5-(Aminosulfonyl)-4-methyl-1,3-thiazol-2-yl]-N-methyl-2-[4-(2-pyridyl)phenyl]acetamide]	10	0	extensive efficacy	9	7	extensive efficacy	extensive efficacy	0.3	completely suppressed	0.3	extensive efficacy
Nc1nc2c(ncn2COCCO)c(=O)[nH]1 [Aciclovir, reference compound]	7	33	–	1	90	–	–	–	–	–	–
Cc1nc(N(C)C(=O)Cc2ccc(-c3ccccc3F)cc2)sc1S(N)(=O)=O [N-[5-(Aminosulfonyl)-4-methyl-1,3-thiazol-2-yl]-2-(2′-fluoro[1,1′-biphenyl]-4-yl)-N-methylacetamide]	–	–	–	–	–	–	extensive efficacy	0.2	–	–	–
Cc1nc(N(C)C(=O)Cc2ccc(-c3ccccc3)cc2)sc1S(N)(=O)=O [N-[5-Aminosulfonyl)-4-methyl-1,3-thiazol-2-yl]-2-[1,1′-biphenyl]-4-yl-N-methylacetamide]	–	–	–	–	–	–	extensive efficacy	7.9	–	–	–
Cc1nc(N(C)C(=O)Cc2ccc(-c3cccc(F)c3)cc2)sc1S(N)(=O)=O [N-[5-(aminosulfonyl)-4-methyl-1,3-thiazol-2-yl]-2-(3′-fluoro-1,1′-biphenyl-4-yl)-N-methylacetamide]	–	–	–	–	–	–	extensive efficacy	0.3	–	–	–
